# According to patent EP3338775B1, “USE OF BUTYLIDENEPHTHALIDE” (Everfront Biotech Inc., priority 2015, dated 2017):
# Values joined by “and” are separate entries in the source; they are usually repeats but may differ in a detail not shown here. Equal entries are not always repeated.
# Assays:
# Sox-2 and Oct4 proteins = assay: Western blotting of stemness-maintenance markers in HNC-TIC-like oral stem cells; type: cell-based; settings: BP 0, 12.5, 25 and 50 µg/ml for 24 hours; both cell lines; Figure 7
# [1] = tested on: malignant glioma DBTRG cells; assay: MTT cell viability assay on malignant glioma DBTRG cells; type: cell-based; settings: 24-hour group
# Protocol: Thereafter, a cell viability assay, MTT assay, was utilized to analyze the viabilities of brain CSCs ^CD133+ and malignant glioma DBTRG cells. […] The results are shown in Figure 1A and Figure 1B for 24-hour group and 48-hour group (i.e., the treatment for 24 hours and 48 hours) and in Table 1 for 24-hour group.
# [2] = tested on: HNC-TIC-like oral stem cells stably transfected with GFP-tagged constructs; assay: Tumor initiating activity animal experiment, subcutaneous GFP-tagged HNC-TIC-like oral stem cells in nude mice; type: in vivo, BALB/c nu/nu mice
# Protocol: In this research, the effect of BP on inhibiting the tumor initiating activity of cancer stem cells was further investigated by animal experiments. First, 5-6 weeks old BALB/c nu/nu mice (weight 18-22 g) were bred under the same condition for 4 weeks. Then, HNC-TIC-like oral stem cells stably transfected with GFP-tagged constructs were injected (1×10^4 cells/0.1 mL/mouse) subcutaneously into the axilla of mice. After tumors reached 100 mm^3, mice were grouped into one control group and two experimental groups (three groups in total, n=3 per group). Then, one experimental group was injected daily with 100 mg/kg of BP for 6 days and another experimental group was injected daily with 200 mg/kg of BP for 6 days. The control group was injected daily with a vehicle (without BP) for 6 days. Ten days after the injection of BP or vehicle, the length and width were measured every 2 days (22 days in total), and then, the average tumor volume was calculated according to the following Formula 1. At the same time, the GFP signal (i.e., green fluorescence) of each group was detected and photographed by the IVIS Imaging system. The GFP intensity of each group was analyzed by Image-Pro Plus software. [length×width^2]/2((unit:mm)^3) [formula]
# [3] = tested on: CD133, Sox-2 and Oct4 proteins; assay: Western blotting of stemness-maintenance markers in brain CSCs CD133+; type: cell-based; settings: BP 0, 12.5, 25, 50, 62.5 and 75 µg/ml for 24 hours; Figures 4 and 5
# Protocol: It has been known that CD44, CD133, Sox-2 (sex-determining region Y protein (SRY)-related high-mobility group box 2) and Oct4 (octamerbinding transcription factor 4) proteins all are stemness-maintenance markers of cancer stem cells and participate in the regulation of the self-renewal and differentiation of cancer stem cells. Brain CSCs ^CD133+ was treated with different concentrations (0, 12.5, 25, 50, 62.5 and 75 µg/ml) of BP for 24 hours, and then, proteins were extracted from the cells to conduct Western blotting to determine the expressions of CD133, Sox-2 and Oct4 proteins in the BP-treated brain CSCs ^CD133+. In addition, MiaPaCa-2 cell line (i.e., a cell line of pancreatic cancer cells) was treated with different concentrations (0, 12.5, 25, and 50 µg/ml) of BP for 24 hours, and then, proteins were extracted from the cells to conduct Western blotting to determine the expressions of Sox-2, CD133 and CD44 proteins in the BP-treated MiaPaCa-2 cells. […]
# [4] = tested on: HNC-TIC-like oral stem cells (ALDH1^+CD44^+-1 cell line or ALDH1^+CD44^+-2 cell line); assay: Soft agar colony formation assay with HNC-TIC-like oral stem cells; type: cell-based; settings: BP 0, 25 and 50 µg/ml for 24 hours
# Protocol: In this research, a soft agar colony formation assay was used to investigate the effect of BP on inhibiting the tumor initiating activity of cancer stem cells. First, HNC-TIC-like oral stem cells (i.e., ALDH1^+CD44^+-1 cell line or ALDH1^+CD44^+-2 cell line) were treated with different concentrations (0, 25 and 50 µg/ml) of BP for 24 hours, and then, the treated cells of each group was separately seeded in the top agar [containing DMEM (Dulbecco's Modified Eagle's Medium medium), 10 % (v/v) Fetal Calf Serum (FCS) and 0.3 % (w/v) agar] (purchased from Sigma-Aldrich) at an initial cell number of 2×10^4. On the other hand, a six-well culture dish was coated with the bottom agar [containing DMEM, 10 % (v/v) FCS and 0.6 % (w/v) agar] (purchased from Sigma-Aldrich), 2 ml for each well. After the bottom agar was solidified, each group of the top agar (containing oral cancer stem cells) was respectively added onto the bottom agar in different wells of the dish, 2 ml for each well. […] Lastly, the bottom agar was stained with 0.005 % crystal violet, the number of colonies (with a diameter ≥100 µm) was counted over five fields per well with the use of a microscope, and those fields were photographed. The relative colony-forming ability of cells of each experimental group was calculated based on the result of the group treated with 0 µg/ml of BP.
# brain CSCs ^CD133+ = assay: Wound healing assay with brain CSCs CD133+; type: cell-based; settings: BP 0-75 µg/ml or BCNU 0-400 µM for 24 hours; Figure 13
# Excerpt: In this research, a wound healing assay was used to further investigate the effect of BP on inhibiting the metastasis of cancer stem cells.
# MMP-2 = assay: Western blotting of MMP-2 protein in brain CSCs CD133+; type: cell-based; settings: BP 0, 12.5, 25, 50, 62.5 and 75 µg/ml for 24 hours, Figure 10
# Protocol: It has been known that at the start of the invasion of cancer stem cells, the extracellular matrix (ECM) is degraded by matrix metalloproteinases (MMPs). Wherein, the expressions of gelatinases, such as gelatinase-A (i.e., MMP-2) and gelatinase-B (i.e., MMP-9), are highly related to the histopathology of tumor metastasis. Brain CSCs ^CD133+ was treated with different concentrations (0, 12.5, 25, 50, 62.5 and 75 µg/ml) of BP for 24 hours, and then, proteins were extracted from the cells to conduct Western blotting to determine the expression of MMP-2 protein in the BP-treated brain CSCs ^CD133+.
smiles,measurement,setting,value
"CCCC=C1OC(=O)c2ccccc21 [BP, butylidenephthalide]",expressions of Sox-2 and Oct4 proteins in the HNC-TIC-like oral stem cells,Sox-2 and Oct4 proteins,significantly decreased
same,IC50,[1],400 µM and 75.3 µg/mL
same,GFP intensity,"[2]; 100 mg/kg and 200 mg/kg groups, injected daily for 6 days, compared to control group, Figures 16C, 16D",significantly decreased
same,tumor volume,"[2]; 100 mg/kg and 200 mg/kg groups, injected daily for 6 days, over a period of time after BP injection, Figure 16B",decreased
same,body weight of mice,"[2]; 100 mg/kg or 200 mg/kg of BP injected daily for 6 days, Figure 16A",didn't change significantly
same,"expressions of CD133, Sox-2 and Oct4 proteins in brain CSCs ^CD133+",[3],significantly decreased
same,number of colonies in the bottom agar,"[4]; 4 weeks culture, Figure 15A",significantly decreased
same,relative colony-forming ability of cancer stem cells,"[4]; relative to 0 µg/ml group, Figure 15B",decreased along with the increment in the concentration of BP
same,number of brain CSCs ^CD133+ migrated to the wound,brain CSCs ^CD133+,significantly decreased
same,expression of MMP-2 protein,MMP-2,significantly decreased
